This note sets out measurements from US7160989B2, “Antibodies that recognize and bind phosphorylated human androgen receptor and methods of using same” (New York University, priority 2003, dated 2007).

One assay addresses T1, AR S213 phosphorylation (Homo sapiens, UniProt P10275).
T1 sequence (P10275 1-920): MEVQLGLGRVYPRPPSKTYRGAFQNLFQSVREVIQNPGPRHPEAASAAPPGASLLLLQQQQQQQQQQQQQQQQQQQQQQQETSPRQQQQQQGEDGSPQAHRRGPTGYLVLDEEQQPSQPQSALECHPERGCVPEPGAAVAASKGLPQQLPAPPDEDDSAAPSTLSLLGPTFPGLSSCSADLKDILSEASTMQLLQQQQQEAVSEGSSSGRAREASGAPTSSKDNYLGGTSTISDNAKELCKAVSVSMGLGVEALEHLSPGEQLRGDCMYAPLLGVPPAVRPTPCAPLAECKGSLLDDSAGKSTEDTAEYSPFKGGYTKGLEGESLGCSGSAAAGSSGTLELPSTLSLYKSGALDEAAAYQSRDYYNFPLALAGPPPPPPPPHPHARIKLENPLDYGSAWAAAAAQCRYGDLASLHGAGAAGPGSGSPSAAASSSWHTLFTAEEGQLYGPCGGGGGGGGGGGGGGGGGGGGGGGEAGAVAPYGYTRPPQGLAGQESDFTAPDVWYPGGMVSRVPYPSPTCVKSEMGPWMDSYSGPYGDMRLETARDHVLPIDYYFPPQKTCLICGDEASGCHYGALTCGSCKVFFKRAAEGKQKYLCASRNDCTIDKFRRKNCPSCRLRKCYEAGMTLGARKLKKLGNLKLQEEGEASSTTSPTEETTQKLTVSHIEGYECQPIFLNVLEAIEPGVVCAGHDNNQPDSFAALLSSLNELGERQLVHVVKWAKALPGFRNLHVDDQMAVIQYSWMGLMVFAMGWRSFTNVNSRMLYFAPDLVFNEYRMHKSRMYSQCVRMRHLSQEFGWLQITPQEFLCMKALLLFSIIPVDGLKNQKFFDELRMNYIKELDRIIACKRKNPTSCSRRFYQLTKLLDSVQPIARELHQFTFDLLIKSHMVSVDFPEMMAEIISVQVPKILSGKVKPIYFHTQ
Put plainly: Immunoblot of AR S213 phosphorylation in 293 cells transfected with wild type AR. In kind it is cell-based. For orientation: A western blot detects proteins with antibodies after separation by electrophoresis.

Another assay relates to phospho-MAPK (P-MAPK). Put plainly: Immunoblot of phospho-MAPK in transfected 293 cells. In kind it is cell-based, human. The conditions noted are these: 293 cells treated with IGF-1; FIG. 4B.
The next assay addresses P-S213 AR (Homo sapiens, UniProt P10275). The conditions noted are these: 293 cells, wild type AR, treated with R1881; FIG. 3B.

Protocol for P-S213 AR: Preparation of nuclear and cytoplasmic lysates: Nuclear and cytoplasmic lysates were prepared according to (Lee et al., 1988). Cells (1×10^6 cells) were collected by centrifugation, swelled in a hypotonic buffer, and lysed by extruding the cells through a 25-gauge hypodermic needle. This homogenate was then centrifuged at 14,000 rpm for 5 min to pellet the nuclei, and the supernatant was saved as the cytoplasmic fraction. The proteins were extracted by re-suspension of the nuclear pellet in a high salt buffer and separation of debris by centrifugation. The resulting supernatant was retained as the nuclear fraction.
To assess the subcellular localization of AR-P-S213, fractionation studies were conducted in the presence of R1881.

Turning to “IGF-1: growth factor used to treat 293 cells; phosphorylates MAPK”, in the assay with AR S213 phosphorylation (293 cells, IGF-1 alone 5 or 10 minutes or 2 hours, absence of R1881, FIG. 4B), the “AR phosphorylation with IGF-1 alone” value is given as “does not result in AR phosphorylation”. For the same compound, the MAPK phosphorylation result in the assay on phospho-MAPK (P-MAPK) was “phosphorylated”.

Regarding `C[C@]1(O)CC[C@H]2[C@@H]3CCC4=CC(=O)CCC4=C3C=C[C@@]21C` [R1881], at AR S213 phosphorylation, the “AR S213 phosphorylation at 10 nM” value is recorded as “robust phosphorylation”; the “AR S213 phosphorylation at lower levels” value is listed as “not at lower levels”; the “AR S213 phosphorylation, compound alone” value is reported as “phosphorylated”; the “AR phosphorylation by hormone” value was “robust AR phosphorylation”. Also, at AR S213 phosphorylation, the “Earliest time at which phosphorylation may occur” value was no less than 10 min and the “Time at which phosphorylation above background is obvious” value was 60 min. At P-S213 AR, the “Sub-cellular localization of P-S213 AR” value is recorded as “predominantly nuclear”.
